Patent US10131652B2, “Pyrimidinyloxy benzene derivatives as herbicides” (E. I. DU PONT DE NEMOURS AND COMPANY, priority 2014, dated 2018)

Experiments:
Format in all cases: in vivo
[1] = test system: rice (Oryza sativa); test: Test C flooded paddy test plant response; details: Flood, 250 g ai/ha; scale of 0 to 100 where 0 is no effect and 100 is complete control; 13 to 15 days
Procedure, shortened: (§1)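 Water-applied treatment: compounds go directly into floodwater standing 3 cm over the soil of pots holding 2-leaf-stage plants. Depth is kept constant; plants stay in a greenhouse 13 to 15 days before visual comparison with controls on a 0–100 scale.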

[2] = test system: ducksalad (Heteranthera limosa); test: Test C flooded paddy test plant response; details: Flood, 250 g ai/ha; scale of 0 to 100 where 0 is no effect and 100 is complete control; 13 to 15 days
Procedure, shortened: as §1

[3] = test system: small-flower umbrella sedge (Cyperus difformis); test: Test C flooded paddy test plant response; details: Flood, 250 g ai/ha; scale of 0 to 100 where 0 is no effect and 100 is complete control; 13 to 15 days
Procedure, shortened: as §1

[4] = test system: barnyardgrass (Echinochloa crus-galli); test: Test C flooded paddy test plant response; details: Flood, 250 g ai/ha; scale of 0 to 100 where 0 is no effect and 100 is complete control; 13 to 15 days
Procedure, shortened: as §1

[5] = test system: chickweed (common chickweed, Stellaria media); test: Test D postemergence plant response; details: for Plant response rating, Chickweed: scale 0 to 100, 0 no effect, 100 complete control
Procedure, shortened: (§2)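 Scores reflect visual plant response relative to untreated controls on a 0 to 100 scale, where 100 means complete control. Treatment was postemergence on 2–18 cm plants in peat-based potting medium, with greenhouse assessment 13–15 days later.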

[6] = test system: kochia (Kochia scoparia); test: Test D postemergence plant response; details: for Plant response rating, Kochia: scale 0 to 100, 0 no effect, 100 complete control
Procedure, shortened: as §2

[7] = test system: wild oat (Avena fatua); test: Test D postemergence plant response
Procedure, shortened: as §2

[8] = test system: yellow nutsedge (Cyperus esculentus); test: Test D pre-/postemergence plant response; details: Postemergence
Procedure, shortened: (§3)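 Sown seed (loam/sand soil) treated preemergence; emerged plants, 1- to 4-leaf stage and 2 to 18 cm, treated postemergence in peat/vermiculite medium. Greenhouse incubation 13–15 d. Endpoint: visual 0–100 rating versus untreated.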

[9] = test system: oilseed rape (Brassica napus); test: Test D pre-/postemergence plant response; details: Postemergence
Procedure, shortened: as §3

[10] = test system: winter wheat (Triticum aestivum); test: Test D pre-/postemergence plant response; details: Postemergence
Procedure, shortened: as §3

[11] = test system: velvetleaf (Abutilon theophrasti); test: Test D pre-/postemergence plant response; details: Postemergence
Procedure, shortened: as §3

[12] = test system: large (Lg) crabgrass (Digitaria sanguinalis); test: Test D pre-/postemergence plant response; details: Postemergence; for Plant response rating, Crabgrass, Large: scale 0 to 100, 0 no effect, 100 complete control
Procedure, shortened: as §3

[13] = test system: soybean (Glycine max); test: Test D pre-/postemergence plant response; details: Postemergence
Procedure, shortened: as §3

[14] = test system: johnsongrass (Sorghum halepense); test: Test D pre-/postemergence plant response; details: Postemergence; for Plant response rating, Johnsongrass: scale 0 to 100, 0 no effect, 100 complete control
Procedure, shortened: as §3

[15] = 31 g ai/ha, scale 0 to 100 (0 no effect, 100 complete control)
[16] = 62 g ai/ha, scale 0 to 100, 0 no effect, 100 complete control
[17] = 125 g ai/ha, scale 0 to 100, 0 no effect, 100 complete control

SMILES: Clc1cnc(Oc2ccccc2-c2cc(Cl)sn2)nc1 [Compound 192]
- Rice plant response rating [1]: 0
- Ducksalad plant response rating [2]: 60
- Sedge, Umbrella plant response rating [3]: 40
- Barnyardgrass plant response rating [4]: 0
- Plant response rating (scale 0 to 100), Chickweed ([5]; 16 g ai/ha): 0
- Chickweed plant response rating [5, 15]: 50
- Plant response rating, Chickweed ([5]; 62 g ai/ha): 50
- Plant response rating, Chickweed ([5]; 125 g ai/ha): 55
- Plant response rating (scale 0 to 100), Kochia ([6]; 16 g ai/ha): 50
- Kochia plant response rating [6, 15]: 80
- Plant response rating, Kochia ([6]; 62 g ai/ha): 90
- Plant response rating, Kochia ([6]; 125 g ai/ha): 95
- Plant response rating (scale 0 to 100), Oat, Wild ([7]; 16 g ai/ha): 0
- Oat, Wild plant response rating [7, 15]: 0
- Oat, Wild plant response rating [7, 16]: 0
- Plant response rating, Oat, Wild [7, 17]: 5
- Plant response rating (scale 0 to 100), Nutsedge, Yellow ([8]; 16 g ai/ha): 0
- Nutsedge, Yellow plant response rating [8, 15]: 5
- Nutsedge, Yellow plant response rating [8, 16]: 0
- Plant response rating, Nutsedge, Yellow [8, 17]: 5
- Plant response rating (scale 0 to 100), Oilseed Rape ([9]; 16 g ai/ha): 0
- Oilseed Rape plant response rating [9, 15]: 0
- Oilseed Rape plant response rating [9, 16]: 5
- Plant response rating, Oilseed Rape [9, 17]: 50
- Plant response rating (scale 0 to 100), Wheat ([10]; 16 g ai/ha): 0
- Wheat plant response rating [10, 15]: 0
- Wheat plant response rating [10, 16]: 5
- Plant response rating, Wheat [10, 17]: 5
- Plant response rating (scale 0 to 100), Velvetleaf ([11]; 16 g ai/ha): 20
- Velvetleaf plant response rating [11, 15]: 20
- Velvetleaf plant response rating [11, 16]: 30
- Plant response rating, Velvetleaf [11, 17]: 55
- Plant response rating (scale 0 to 100), Crabgrass, Large ([12]; 16 g ai/ha): 5
- Crabgrass, Large plant response rating [12, 15]: 5
- Plant response rating, Crabgrass, Large ([12]; 62 g ai/ha): 10
- Plant response rating, Crabgrass, Large ([12]; 125 g ai/ha): 10
- Plant response rating (scale 0 to 100), Soybean ([13]; 16 g ai/ha): 10
- Soybean plant response rating [13, 15]: 30
- Soybean plant response rating [13, 16]: 55
- Plant response rating, Soybean [13, 17]: 85
- Plant response rating (scale 0 to 100), Johnsongrass ([14]; 16 g ai/ha): 0
- Johnsongrass plant response rating [14, 15]: 5
- Plant response rating, Johnsongrass ([14]; 62 g ai/ha): 5
- Plant response rating, Johnsongrass ([14]; 125 g ai/ha): 5
